Values of other authors, collected in patent publication US20240307316A1, “ANTIOXIDANT AND OXYGEN-RELEASING LIGNIN COMPOSITES TO ACCELERATE WOUND HEALING” (Board of Supervisors of Louisiana State University and …, priority 2023, published 2024).
Like-named read-outs stand apart in the source and are kept apart here.

| SMILES | solubility limit | solubility (at 20° C.) | concentrations exhibiting cytotoxicity (3T3 FBs) | solubility (at 18° C.) |
| --- | --- | --- | --- | --- |
| [Ca+2].[O-][O-] [CaO2, Calcium peroxide] | 1.65 mg/mL | 1.65 mg/mL | higher than 10 mg/mL |  |
| [Mg+2].[O-][O-] [MgO2, magnesium peroxide] |  |  |  | 0.86 mg/mL |
